Series [1] deals with CBFβ binding to the RUNX1 Runt domain (Homo sapiens (Human), UniProt Q13951). Description: FRET assay, inhibition of CBFβ binding to the RUNX1 Runt domain. Particulars: for IC50: inhibition of wild-type CBFβ binding to the RUNX1 Runt domain, NA = not active; for activity in FRET assay (structure-activity relationship, in words): relative to Al-4-57 or parent compounds. The source says: Fluorescence Resonance Energy Transfer (FRET) Assay:
As described in U.S. Pat. No. 8,748,618 and published PCT application WO2010/132684, a FRET assay can be used to effectively monitor the inhibition of CBF binding to the Runt domain of RUNX proteins (as well as for CBFβ-SMMHC binding to the Runt domain of RUNX proteins). For the assay, the green fluorescent protein derivative Cerulean is fused to the N-terminus of the Runt domain and the green fluorescent protein derivative Venus to the N-terminus of CBFβ (Gorczynski, M. J., J. Grembecka, et al. (2007), “Allosteric inhibition of the protein-protein interaction between the leukemia-associated proteins Runx1 and CBFbeta.” Chem Biol 14(10): 1186-97), or to CBFβ-SMMHC (Illendula, A. et al. Chemical biology. A small-molecule inhibitor of the aberrant transcription factor CBFbeta-SMMHC delays leukemia in mice. Science 347, 779-784, doi:10.1126/science.aaa0314 (2015)). The ratio of the emission intensities at 525 nm and 474 nm, measured after excitation at 433 nm, was used as the readout in this assay. The dynamic range for the FRET assay was determined by adding a 30-fold excess of untagged CBFβ (or CBFβ-SMMHC) to the assay and the associated change in the FRET ratio was defined as 100% inhibition.

For another series, the system named is 11 leukemia cell lines. The experiment in a line: Viability of a panel of 11 leukemia cell lines. The format is cell-based. Particulars: 48 hours of treatment. From the text: Compounds Al-4-88, Al-4-57, Al-10-47, Al-10-104, and Al-14-91 were screened against a panel of 11 leukemia cell lines with varying genotypes.
The viability is represented as the percent DAPI negative cells relative to DMSO control. Each symbol/color in the graphs of FIG. 4 represent an individual cell line. The symbol represents the mean of independent replicates and the error bars represent the SEM. The table indicates the morphology, type of leukemia, and known mutations for each of the 11 cell lines.

The target in series [2] is CBFβ-SMMHC binding to the RUNX1 Runt domain. Particulars: U.S. Pat. No. 8,748,618; read-out: IC50, binding of CBF-SMMHC to the RUNX1 Runt domain; cited from earlier work.
For series [3] the following is noted: previous work, Illendula et al. Science 2015; cited from earlier work.
For series [4], the system named is T-ALL cell lines Jurkat, HBP-ALL, Loucy, and KOPTK1. The experiment in a line: Proliferation of T-ALL cell lines. Type of series: cell-based, human.
Another series relates to H520 lung cancer cells. The experiment in a line: MTT growth assay, H520 cells. As to conditions: H520, 10 μM, 72 hrs. The format is cell-based. As to the method: (§1) Activity of Al-10-104 was tested using several lung cancer cell lines and one immortalized, non-transformed lung cell line. […] Data for the squamous cell carcinoma of the lung cell line H520 and the immortalized normal lung epithelial cell line BEAS-2B are shown in FIG. 10.
(§2) H520 cells were cultured in RPMI 1640 medium, supplemented with fetal bovine serum (10% final concentration), Hepes (1%), and sodium priruvate (1%). The MTT assay used 4×10^5/ml cells. BEAS-2B cells were cultured in DMEM medium with fetal bovine serum (10% final concentration). The MTT assay for the BEAS-2B cell line was performed using 3.5×10^5/ml cells.
(§3) Al-4-88 had no effect on either cell line.
In general terms: Formazan colour is commonly taken as a measure of viable cells.

Series [5] relates to BEAS-2B normal lung cells. Description: MTT growth assay, BEAS-2B cells. The format is cell-based. Particulars: 10 μM, 72 hrs. As to the method:
as §1, §2, §3

Series [6] deals with binding of CBFβ to RUNX1 in SEM cells (Homo sapiens (Human), UniProt Q13951). Description: Co-immunoprecipitation of CBFβ with RUNX1 in SEM cells. Type of series: cell-based. Particulars: 10 μM, 6 hours. As to the method: To test whether the wild-type CBFβ Inhibitors can disrupt the binding of CBFβ to RUNX1 in cells, co-immunoprecipitation experiments were performed in the SEM cell line. Co-immunoprecipitation assays of lysates from […] SEM cells were treated with Al-4-88^1, Al-10-47, Al-10-104, Al-12-126 and Al-14-91 at 10 μM for 6 hours. RUNX1-bound CBFβ protein levels and immunoprecipitated RUNX1 are shown on the top panel of FIG. 2A. Quantification of RUNX1 bound CBFβ is shown on the bottom graph.
Sequence of binding of CBFβ to RUNX1 in SEM cells (Q13951 whole entry): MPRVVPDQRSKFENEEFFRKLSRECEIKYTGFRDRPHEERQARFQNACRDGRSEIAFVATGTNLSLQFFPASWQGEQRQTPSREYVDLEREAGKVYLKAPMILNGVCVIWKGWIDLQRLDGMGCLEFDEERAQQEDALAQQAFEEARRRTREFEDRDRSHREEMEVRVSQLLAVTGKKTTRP

A short description of series [7]: Aqueous solubility in 0.25% DMSO by NMR spectroscopy. The format is physicochemical. As to conditions: kinetic from dmso stock. As to the method: Al-10-104, Al-12-126, and Al-14-91 were all soluble at concentrations above 100 μM. […] As the Runt domain is highly conserved among all three RUNX family members, we would expect to see similar effects on binding to RUNX2 or RUNX3. Therefore, the action of the inhibitors will likely affect the activity of all three RUNX family members.

For another series, the system named is MLL-AF4 leukemia cells. Description: Cell death of MLL-AF4 leukemia cells. Type of series: cell-based, human.
Series [8] in a line: Sedative effects and tolerability in mice after IP administration. The format is in vivo. Particulars: HCl salts with Captisol, IP at 100 mg/kg. The source says: “NA” indicates not active. […] Reasoning that this effect depended on the ability of the compound to cross the blood brain barrier (BBB), compounds Al-12-126 and Al-14-91 have appended morpholine ring substituents to the 5 position of the pyridine ring to increase the polarity of the compounds and thereby limit BBB penetration.

For the next series, the system named is MCF10A-5E cells. The experiment in a line: Multiacini formation in 3D culture of MCF10A-5E cells. The format is cell-based. As to conditions: shRUNX1 or control cells, 3D culture 10-11 days, compared to carrier control or Al-4-88. The source says:
CBFβ inhibitors altered acinar morphogenesis of the basal-like (triple negative) breast epithelial cells and blocked survival of basal-like breast cancer cells in 3D organotypic culture. To evaluate whether CBFβ inhibition would influence the multicellular organization of basal-like breast epithelia, 3D culture of MCF10A-5E cells was used. Knockdown of RUNX1 in these cells delayed proliferation arrest and promoted the formation of nonspherical acini, indicating a role for RUNX1 during morphogenesis.
The multiacini resulting from CBFβ inhibition were not radially symmetric, thereby arguing against a general defect in cell polarity or proliferation arrest. Instead, the inhibitors appeared to be initiating a nascent branching program that is reminiscent of when TGFβ-family signaling is impaired.
FIG. 9A: MCF10A-5E cells stably expressing shRUNX1 or shGFP control were grown in 3D culture for 10-11 days with the indicated compounds and imaged by Brightfield microscopy. The total number of multiacini per chamber was counted and scaled to the shGFP DMSO control. Data are shown as the mean±SEM of eight independent cultures.

Where [9] appears, read: aqueous, 0.25% DMSO, NMR spectroscopy, read-out: aqueous solubility.

Converted amounts (≈) assume the structure as drawn. Read-outs that look alike come from different tables or passages of the source.

Here are results for 20 compounds from US10562890B2, “Cancer therapeutics” (UNIVERSITY OF VIRGINIA PATENT FOUNDATION, priority 2014, dated 2020).

Sequence of CBFβ binding to the RUNX1 Runt domain (Q13951 1-141): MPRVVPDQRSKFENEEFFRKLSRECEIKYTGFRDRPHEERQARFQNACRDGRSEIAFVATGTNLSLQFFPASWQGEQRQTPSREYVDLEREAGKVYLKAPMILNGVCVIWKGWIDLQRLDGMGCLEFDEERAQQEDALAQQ

Usually IC50 stands for the midpoint of a concentration-inhibition curve. `COc1ccc2[nH]c(-c3ccccn3)nc2c1` [Al-4-57]: the IC50 was 34 µM in series [1] and 22 µM in [2]. Moreover, the “percent viability (DAPI negative cells relative to DMSO)” value in the series with 11 leukemia cell lines is listed as “only very weak activity”. Moreover, the half-life in mice entry in [3] was “short half-life”.

For the compound `c1ccc(-c2nc3ccccc3[nH]2)nc1` [Al-4-88, reference compound], the “percent viability (DAPI negative cells relative to DMSO)” value in the series with 11 leukemia cell lines is recorded as “No activity”. For the same compound, the proliferation result in series [4] is “did not have such an effect”. The “cell growth (MTT assay)” value (with H520 lung cancer cells; in series [5]) was “no effect” throughout.

A word on the solubility: it is the dissolved amount per volume that the medium holds. In the case of `FC(F)(F)Oc1ccc2[nH]c(-c3ccccn3)nc2c1` [Al-10-47], the IC50 in [1] is 3.19 ± 0.5 µM. Besides, in series [6], the “RUNX1-bound CBFβ (co-immunoprecipitation)” value (“RUNX1-bound CBFβ” for short) is “only a modest effect”. This compound came in with a solubility in [7] of 0.44 µM (≈ 0.123 µg/mL). Moreover, in the series on 11 leukemia cell lines, the “percent viability (DAPI negative cells relative to DMSO)” value is “significant inhibition of the majority of the cell lines”. For the same compound, the cell death result in the series on MLL-AF4 leukemia cells was “induced cell death”.

`COc1cnc(-c2nc3cc(OC(F)(F)F)ccc3[nH]2)c(OC)c1` [Al-12-16]: in series [1], the IC50 came to 1.69 ± 0.18 µM.

As to `FC(F)(F)Oc1ccc2[nH]c(-c3ccc(OCCN4CCOCC4)cn3)nc2c1` [Al-12-126], the half-inhibitory concentration (IC50) in series [1] is 8.91 ± 1.3 µM. The “RUNX1-bound CBFβ” value in series [6] was “reduction in binding”. Moreover, the solubility in series [7] (setting [9]) is > 100 µM. Besides, in series [8], the sedative effects result is given as “did not induce the sedative effects” and the tolerability result was “well-tolerated”.

Turning to `O=C(O)c1cccnc1-c1nc2cc(OC(F)(F)F)ccc2[nH]1` [Al-12-150], in [1], the IC50 was determined as 48.9 ± 1.6 µM.

Regarding `CN(C)c1cccnc1-c1nc2cc(OC(F)(F)F)ccc2[nH]1` [Al-14-18], the IC50 in series [1] was 4.97 ± 0.27 µM.

Compound `FC(F)(F)Oc1ccc2[nH]c(-c3ncccc3OCCN3CCOCC3)nc2c1` [Al-14-55] displayed an IC50 in [1] of 4.83 ± 0.32 µM.

For the compound `COc1ccnc(-c2nc3cc(OC(F)(F)F)ccc3[nH]2)c1OC` [Al-14-72], the IC50 in series [1] came to 1.72 ± 0.23 µM.

In turn, `COc1cc(OCCN2CCOCC2)cnc1-c1nc2cc(OC(F)(F)F)ccc2[nH]1` [Al-14-91] registered an IC50 in series [1] of 2.97 ± 0.53 µM. For the same compound, the “RUNX1-bound CBFβ” value in series [6] is on record as “reduction in binding”. Further, in series [7] (setting [9]), the solubility was > 100 µM. Also, in series [8], the sedative effects entry was “did not induce the sedative effects” and the tolerability result was “well-tolerated”. In the series with 11 leukemia cell lines, the “percent viability (DAPI negative cells relative to DMSO)” value was “significant inhibition of the majority of the cell lines”. Besides, the “formation of multiacinar structures” value in the series with MCF10A-5E cells was “dramatic increase”.

With `COc1ccc2[nH]c(-c3ccccc3)nc2c1` [Compound 2a, 5-methoxy-2-phenyl-1H-benzo[d]imidazole], the “activity in FRET assay (structure-activity relationship, in words)” value (shortened to “activity in FRET assay”) in [1] is on record as “complete loss of activity”.

As for `COc1ccc2[nH]c(-c3ccco3)nc2c1` [Compound 2b, 2-(furan-2-yl)-5-methoxy-1H-benzo[d]imidazole], in series [1], the “activity in FRET assay” value is reported as “complete loss of activity”.

`c1ccc(-c2nc3ccccc3[nH]2)nc1` [Compound 3a, 2-(pyridin-2-yl)-1H-benzo[d]imidazole]: the “activity in FRET assay” value in series [1] was “complete loss of activity”.

`CCOc1ccc2[nH]c(-c3ccccn3)nc2c1` [Compound 3b, 5-ethoxy-2-(pyridin-2-yl)-1H-benzo[d]imidazole]: in [1], the IC50 is ≥ 34.3 µM.

Regarding `Fc1ccc2[nH]c(-c3ccccn3)nc2c1` [Compound 3c, 5-fluoro-2-(pyridin-2-yl)-1H-benzo[d]imidazole], the IC50 in series [1] was ≥ 34.3 µM.

Take `Cc1ccc2[nH]c(-c3ccccn3)nc2c1` [Compound 3d, 5-methyl-2-(pyridin-2-yl)-1H-benzo[d]imidazole]: in series [1], the “activity in FRET assay” value is “loss of activity”.

Take `FC(F)(F)c1ccc2[nH]c(-c3ccccn3)nc2c1` [Compound 3f, 2-(pyridin-2-yl)-5-(trifluoromethyl)-1H-benzo[d]imidazole]: the “activity in FRET assay” value in [1] was “loss of activity”.

With `COc1cccc2[nH]c(-c3ccccn3)nc12` [Compound 4a, 4-methoxy-2-(pyridin-2-yl)-1H-benzo[d]imidazole], in series [1], the IC50 was ≥ 34.3 µM and the “activity in FRET assay” value is reported as “reduced activity”.

Turning to `COc1ccc2[nH]c(-c3cccc(OC)n3)nc2c1` [Compound 4g, 5-methoxy-2-(6-methoxypyridin-2-yl)-1H-benzo[d]imidazole], the “activity in FRET assay” value in [1] was “inactive”.

Take `COc1ccc2[nH]c(-c3cccc(C)n3)nc2c1` [Compound 4h, 5-methoxy-2-(6-methylpyridin-2-yl)-1H-benzo[d]imidazole]: the “activity in FRET assay” value in [1] was “inactive”.
